Measured values from patent publication US20030157672A1, “Nitrilase from rhodococcus rhodochrous ncimb 11216” (priority 2000, published 2003).

B1: nitrilase with His6 motif: Recombinant nitA nitrilase of R. rhodochrous NCIMB 11216 with C-terminal His6 motif from E. coli JM 109 (pDHE 18), purified on Ni2+-NTA (protein, UniProt Q03217 2-366, looked up)
Aliphatic nitrilase: VEYTNTFKVAAVQAQPVWFDAAKTVDKTVSIIAEAARNGCELVAFPEVFIPGYPYHIWVDSPLAGMAKFAVRYHENSLTMDSPHVQRLLDAARDHNIAVVVGISERDGGSLYMTQLVIDADGQLVARRRKLKPTHVERSVYGEGNGSDISVYDMPFARLGALNCWEHFQTLTKYAMYSMHEQVHVASWPGMSLYQPEVPAFGVDAQLTATRMYALEGQTFVVCTTQVVTPEAHEFFCDNDEQRKLIGRGGGFARIIGPDGRDLATPLAEDEEGILYADIDLSAITLAKQAADPVGHYSRPDVLSLNFNQRHTTPVNTAISTIHATHTLVPQSGALDGVRELNGADEQRALPSTHSDETDRATASI
modifications: C-terminal His6 tag
notes: Recombinant nitA nitrilase of R. rhodochrous NCIMB 11216 with C-terminal His6 motif from E. coli JM 109 (pDHE 18), purified on Ni2+-NTA

Test system: nitrilase (nitA) from Rhodococcus rhodochrous NCIMB 11216 expressed in E. coli JM 109
Test: Conversion of nitriles by E. coli JM 109 (pDHE 17 and pDHE 18) cells; NH4 ions produced in supernatant, measured at 620 nm
Type: biochemical
Details: Experiment 1; E. coli JM 109 (pDHE 17 and pDHE 18) cells, 2 g DBM/l, 30° C., 200 rpm, 1 h; measurement at 620 nm
Protocol: Various nitriles were converted using the E. coli strains JM 109 (pDHE 17 and pDHE 18). The cells were for this purpose cultured in 250 ml LB/Amp medium+2 g/l rhamnose at 30° C. and 200 rpm for 9 hours (=h). The cells were harvested by-centrifugation (20 min, 4° C., 5000 rpm). The cells were then resuspended in 10 mM phosphate buffer, pH 7.2, so that the concentration of dry biomass (DBM) was 2 g DBM/l. 150 μl portions of the cell suspension were pipetted into each well of a microtiter plate. The plate was then centrifuged. The supernatant was aspirated off and the cell pellets were washed twice with Na2HPO4 [sic] (1.42 g/lin Finnagua, pH 7.2). After another centrifugation step, the cell pellets are [sic] resuspended in the respective substrate solution (150 μl). One substrate was added to each row of 12 in the microtiter plate. A row with substrate solution but without cells was used as control (blank). The microtiter plates were incubated in a shaking incubator at 30° C. and 200 rpm for 1 h. The cells were then spun down and the amount of NH4 [sic] ions produced in the supernatant was determined using a Biomek instrument. Measurement took place at 620 nm, comparing with a calibration plot produced using various NH4OH solutions. The substrates employed in Experiment 1 (see FIG. 3, Table 1) were the following substrates: benzonitrile (=1), 3-hydroxypropionitrile (=2), 2-methylglutaronitrile (=3), 4-chloro-3-hydroxybutyronitrile (=4), malononitrile (=5), crotononitrile (=6), geranonitrile (=7), octanedinitrile (=8), pivalonitrile (=9), aminocapronitrile (=10), 3,4-dihydroxybenzonitrile (=11), 3,5-dibromo-4-hydroxybenzonitrile (=12), 3-cyanopyridine (=13), 4-bromobenzyl cyanide (=14), 4-chlorobenzyl cyanide (=15), 2-phenylbutyronitrile (=16), 2-chlorobenzyl cyanide (=17), 2-pyridylacetonitrile (=18), 4-fluorobenzyl cyanide (=19), 4-methylbenzonitrile (=20), benzyl cyanide (=21). The substrates used in Experiment 2 (see FIG. 4, Table 2), which was carried out in analogy to Experiment 1, were as follows: […]
With `CC=CC#N` [Crotononitrile] the “amount of NH4 ions produced in the supernatant (Table 1, Experiment 1)” value (“amount … (Table 1, Experiment 1)” below) was 0.4946.
In the case of `N#CCC#N` [Malononitrile], the “amount … (Table 1, Experiment 1)” value is reported as 0.1208.
With `N#CCc1ccc(Br)cc1` [4-Bromobenzyl cyanide] the “amount … (Table 1, Experiment 1)” value was 0.5213.
For `N#Cc1ccc(O)c(O)c1` [3,4-Dihydroxybenzonitrile], the “amount … (Table 1, Experiment 1)” value was 0.1569.
For `N#CCc1ccc(Cl)cc1` [4-Chlorobenzyl cyanide], the “amount … (Table 1, Experiment 1)” value was 0.4830.
In the case of `N#CCCO` [3-Hydroxypropionitrile], the “amount … (Table 1, Experiment 1)” value is reported as 0.1785.
With `N#CCCCCCCC#N` [Octanedinitrile] the “amount … (Table 1, Experiment 1)” value was 0.4548.
For `N#Cc1cc(Br)c(O)c(Br)c1` [3,5-Dibromo-4-hydroxybenzonitrile], the “amount … (Table 1, Experiment 1)” value was 0.1624.
For `N#CCc1ccc(F)cc1` [4-Fluorobenzyl cyanide], the “amount … (Table 1, Experiment 1)” value was 0.2361.
In the case of `CC(C)(C)C#N` [Pivalonitrile], the “amount … (Table 1, Experiment 1)” value is reported as 0.1569.
For `CC(C#N)CCC#N` (stereo not shown) [2-Methylglutaronitrile], the “amount … (Table 1, Experiment 1)” value was 0.4758.
For `CCC(C#N)c1ccccc1` (stereo not shown) [2-Phenylbutyronitrile], the “amount … (Table 1, Experiment 1)” value was 0.1376.
With `N#CCc1ccccn1` [2-Pyridylacetonitrile] the “amount … (Table 1, Experiment 1)” value was 0.1222.
With `N#CCc1ccccc1` [Benzyl cyanide] the “amount … (Table 1, Experiment 1)” value was 0.2755.
For `Cc1ccc(C#N)cc1` [4-Methylbenzonitrile], the “amount … (Table 1, Experiment 1)” value was 0.4326.
With `N#CCC(O)CCl` (stereo not shown) [4-Chloro-3-hydroxybutyronitrile] the “amount … (Table 1, Experiment 1)” value was 0.1208.
With `N#Cc1cccnc1` [3-Cyanopyridine] the “amount … (Table 1, Experiment 1)” value was 0.2393.
With `N#CCCCCCN` [Aminocapronitrile] the “amount … (Table 1, Experiment 1)” value was 0.1236.
With `N#Cc1ccccc1` [Benzonitrile] the “amount … (Table 1, Experiment 1)” value was 0.4051.
With `N#CCc1ccccc1Cl` [2-Chlorobenzyl cyanide] the “amount … (Table 1, Experiment 1)” value was 0.4530.
In the case of `CC(C)=CCC/C(C)=C/C#N` [Geranonitrile], the “amount … (Table 1, Experiment 1)” value is reported as 0.1517.

Same assay, conditions: Experiment 2, in analogy to Experiment 1; E. coli JM 109 cells, 30° C., 1 h; measurement at 620 nm
In the case of `N#Cc1ccsc1` [3-Cyanothiophene], the “amount of NH4 ions produced in the supernatant (Table 2, Experiment 2)” value (from here on “amount … (Table 2, Experiment 2)”) is reported as 1.9038.
With `COC(CC#N)OC` [3,3-Dimethoxypropionitrile] the “amount … (Table 2, Experiment 2)” value was 0.1466.
With `CC(O)C#N` (stereo not shown) [2-Hydroxypropionitrile] the “amount … (Table 2, Experiment 2)” value was 0.0000.
With `N#C/C=C/C#N` [Fumaronitrile] the “amount … (Table 2, Experiment 2)” value was 2.2510.
With `N#CCc1ccsc1` [3-Cyanomethylthiophene] the “amount … (Table 2, Experiment 2)” value was 0.9949.
In the case of `N#CCCCC#N` [Glutaronitrile], the “amount … (Table 2, Experiment 2)” value is reported as 2.0809.
With `N#CCC(CC#N)c1ccccc1` [3-Phenylglutaronitrile] the “amount … (Table 2, Experiment 2)” value was 0.0000.
In the case of `N#CC(O)CCc1ccccc1` (stereo not shown) [2-Hydroxy-4-phenylbutyronitrile], the “amount … (Table 2, Experiment 2)” value is reported as 0.0000.
With `N#CC(O)c1ccccc1` (stereo not shown) [Mandelonitrile] the “amount … (Table 2, Experiment 2)” value was 0.0000.
In the case of `N#CC(N)c1ccccc1` (stereo not shown) [2-Amino-2-phenylacetonitrile], the “amount … (Table 2, Experiment 2)” value is reported as 0.0000.
For `CCCCC#N` [Valeronitrile], the “amount … (Table 2, Experiment 2)” value was 1.9218.
For `CC(C#N)c1ccccc1` (stereo not shown) [2-Phenylpropionitrile], the “amount … (Table 2, Experiment 2)” value was 0.0000.
In the case of `N#Cc1ccccc1` [Benzonitrile], the “amount … (Table 2, Experiment 2)” value is reported as 1.9518.
For `CCC#N` [Propionitrile], the “amount … (Table 2, Experiment 2)” value was 0.4135.
With `N#C/C=C/c1ccccc1` [trans-cinnamonitrile] the “amount … (Table 2, Experiment 2)” value was 2.2509.

Test system: not listed separately
Test: Conversion of benzonitrile into benzoic acid by nitrilase crude extract or purified nitrilase (HPLC)
Type: biochemical
Details: purified using QIAexpress-Ni2+-NTA; enzyme concentration 50 μg/ml; initial benzonitrile 10 mM, 30° C., pH 7.5, 50 mM Tris/HCl, 0.1 mM DTT
Protocol: For heterologous expression on the laboratory scale, JM 109 (pDHE 17) from a 37° C. overnight culture was inoculated 1:200 in 50 ml dYT complete mediumn (Sambrook et al., 1989) with 0.2% L-rhamnose, and the culture was cultivated with induction in the shaking water bath at 30° C. for 8 h. The cells were then washed once in 50 mM Tris/HCl, pH 7.5, resuspended in the same buffer equivalent to an OD600 of 10, and disrupted by ultrasound treatment. The procedure with JM 109 (pDHE 18) was analogous. The protein pattern of the crude extracts obtained by ultrasound treatment and clarified by centrifugation was determined by SDS polyacrylamide gel electrophoresis, comparing with the noninduced control; with the induction conditions mentioned, the proportion of nitrilase in the protein was about 30% for each of JM 109 (pDHE 17) and JM 109 (pDHE 18).
The nitrilase with His6 motif from JM 109 (pDHE 18) was purified by washing the cells in 50 mM Tris/HCl, pH 7.5, resuspending equivalent to about 50 OD600/ml and preparing extracts with a French press (2×at 20000 psi). […]
In this case, one unit is equivalent to the production of 1 μmol of benzoic acid at an initial benzonitrile concentration of 10 mM, 30° C. and pH 7.5. […] The formation of benzoic acid was determined by HPLC (RP18 column, 250×4 [lacuna], mobile phase 47% methanol, 0.3% H3PO4).
For B1, the “conversion of 2-benzonitrile [sic] into benzoic acid (specific activity), purified nitrilase” value was “around 11 U/mg”.
